Laboratory results taken from publication PMC6892925, “Development of Novel Silyl Cyanocinnamic Acid Derivatives as Metabolic Plasticity Inhibitors for Cancer Treatment” (Scientific Reports, 2019).

Legend:
[1] = test system: MCT1 expressing WiDr cell line; experiment: Seahorse XFe96 glycolysis stress test (ECAR); assay type: cell-based, human; conditions: 30 µM, vs DMSO control
Experimental: (§1) Candidate compounds 2a and 2b were evaluated for their effect on glycolysis, glycolytic capacity and glycolytic reserve. This assay measures extracellular acidification rate (ECAR) which is directly correlated with the rate of glycolysis. The ECAR for both cell lines in the presence of the test compounds can be seen above (Fig. 4B,C). In this assay, cells were initially starved of glucose to reduce their ECAR. Upon addition of glucose, a rise in ECAR was observed proportional to the rate of glycolysis in each cell line. An increase in basal levels of glycolysis in cells treated with test compounds compared to the controls represents a shift toward dependency on glycolysis for ATP production. […] Glycolytic capacity is the maximum rate of glycolysis the cell can attain in the absence of OxPhos as an ATP source.
(§2) 20,000 cells/well were plated in 96-well Seahorse plates (Agilent, part no. 101085-004) and incubated 16–24 hours at 37 °C at 5% CO2. Flux pack sensors (Agilent, part no. 102416-100) were hydrated with XF calibrant solution (Agilent, part no. 100840-000) overnight at 37 °C in a non-CO2 incubator. The serum free assay media was prepared from Seahorse base medium (Agilent, part no. 102353-100) enriched with glutamine (1 mM) and sodium pyruvate (1 mM). The pH of the media was adjusted to 7.4. For glycolysis stress test the serum free assay media was used. For the mitochondrial stress test glucose (10 mM) was added to make an enriched serum free assay media. For both stress tests an 8X stock concentration of test compounds in their respective media was prepared for microplate injections in port A. Stock solutions of glucose (90 mM), oligomycin (10 μM), and 2-deoxyglucose (Chem Impex, 550 mM) were prepared such that their final working concentrations are 10 mM, 1 μM and 50 mM, respectively, for glycolysis stress test. For mitochondrial stress test, stock solutions of oligomycin (9 µM), FCCP (2.5–10 µM, cell line dependent), rotenone + antimycin A (5.5 µM) were prepared such that their final concentrations were 1 µM, 0.25–1 µM, and 0.5 µM, respectively in the enriched test media. Under glycolytic stress test, the cells were treated with test compounds, followed by the addition of glucose, oligomycin and 2-deoxyglucose at 14.29, 33.8, 53.35, 72.87 minutes, respectively. Under mitochondrial stress test, cells were treated with test compounds, followed by the addition of oligomycin, FCCP, and rotenone + antimycin A, at 14.29, 33.8, 53.35, 72.87 minutes, respectively. Extracellular acidification rates (ECAR) and oxygen consumption rates (OCR) were recorded in real-time for glycolysis and mitochondrial stress tests, respectively, using a Seahorse XFe96® analyzer (Agilent). The parameters related to glycolytic and mitochondrial functions were calculated utilizing the Wave 2.4.0 software (Agilent). ATP rate assay experiment was performed using manufactures (Agilent) protocol, and respective mitochondrial and glycolytic ATP rates were normalized to protein (BCA assay) and calculated using Wave 2.4.0 software.

[2] = test system: MCT4 expressing MDA-MB-231 cell line; experiment: Seahorse XFe96 glycolysis stress test (ECAR); assay type: cell-based, human; conditions: 30 µM, MDA-MB-231, vs DMSO control
Experimental: as §1, §2

healthy CD-1 mice = experiment: In vivo systemic toxicity study; parameters: species or system mouse; conditions: once daily 25 mg/kg, 16-day treatment period
Experimental: (§3) Based on in vitro cell proliferation inhibition, MCT1 inhibition, and effects on glycolysis/mitochondrial function, we advanced candidate compounds 2a and 2b for translational in vivo safety and efficacy studies. […] Next, an MCT1 expressing WiDr tumor xenograft model was chosen to evaluate the efficacy of 2a and 2b. After tumors were inoculated, they were allowed to reach ~150 mm^3 volume, and mice were randomly divided into three groups. Group-1 was administered 25 mg/kg (i.p.) of compound 2a, group-2 was administered with 25 mg/kg (i.p.) of 2b, and group-3 was designated as control group and given an injection of vehicle. Treatment was continued for 16 days, and tumor volumes were recorded. […] During the two-week treatment period, there was no significant loss of body weights in mice between treated and control groups. […] At the end of the study, all the tumors were resected, and the tumor mass was weighed (Fig. 6D).
Five-week-old healthy CD-1 mice (Charles River) were obtained and acclimatized for one week prior to treatment. Mice (n = 6) were grouped randomly based on average body weight. […] Mice body weights were recorded daily as a proxy for animal health and were also examined for proper activity and grooming patterns. […]

[3] = test system: MCT1 expressing WiDr tumor xenograft; experiment: In vivo tumor growth inhibition study, WiDr tumor xenograft; parameters: species or system mouse; conditions: 25 mg/kg i.p., 16 days; for tumor growth suppression: vs control group
Experimental: as §3
WiDr cells (5 × 10^6 cells) were suspended in 1:1 mixture of matrigel (Corning, cat. no. 356237) and PBS and injected subcutaneously into the right flank of female athymic nude mice (Charles River). The mice were randomly assigned into 3 groups (n = 6 mice per group). Vertical and horizontal diameters of tumors were measured every two- or three-days using calipers. The tumor volumes were calculated assuming a perfect sphere using the formula V = ab^2/2 where ‘a’ is the longer diameter of the tumor and ‘b’ is the shorter diameter of the tumor. Treatment was initiated when the tumor volume reached 100 mm^3. The study was terminated after sixteen days and tumors were then resected and weighed. All procedures performed using this method were approved by the University of Minnesota Institutional Animal Care and Use Committee (IACUC, protocol no. 1612-34444A) and are in accordance with all guidelines and regulations.

Row | SMILES | basal glycolysis (ECAR) [1] | glycolytic reserve (ECAR) [1] | basal glycolysis (ECAR) [2] | glycolytic capacity (ECAR) [2] | glycolytic reserve (ECAR) [2] | systemic toxicity / tolerability (body weight gains, behavior, grooming) (healthy CD-1 mice) | tumor volume vs control group [3] | tumor growth suppression [3]
1 | CC(C)(C)[Si](Oc1ccc(/C=C(\C#N)C(=O)O)cc1)(c1ccccc1)c1ccccc1 [2a] | significantly increased | significant decrease | significantly increased | significantly reduced | significant decrease | well tolerated | significant suppression in tumor volume | 36%
2 | CC(C)(C)[Si](OCCOc1ccc(/C=C(\C#N)C(=O)O)cc1)(c1ccccc1)c1ccccc1 [2b] | significantly increased | significant decrease | significantly increased | significantly reduced | significant decrease | well tolerated | – | 28%
